Here are results for 3 compounds from patent US20150307543A1, “POLYMORPH” (ONCOLOGY RESEARCH INTERNATIONAL LIMITED, priority 2012, published 2015).

Common to all, as to type: physicochemical
Data set [1] can be described thus: Dissolution analysis in ethanol (% transmission until complete dissolution). The conditions noted are these: set amount in ethanol with stirring, until % transmission reached 100%, FIG. 6. As for the experimental part: In order to test the solubility of the polymorphs produced in examples 1 and 2 a set amount of the material was added to ethanol with stirring and the % transmission of the mixture thus monitored until the % transmission reached 100% (which indicated complete dissolution). The 3 materials tested were (1) compound I hydrate, (2) the polymorphic form of compound I of the invention and (3) the polymorphic form of compound I isolated from methanol. The results of this experiment were detailed in FIG. 6. […] In contrast the dissolution profile of the polymorphic form of the invention is much slower taking almost 8 times as long to reach full dissolution.

Data set [2] can be described thus: Bulk density and tap density. The conditions noted are these: for Weight of 5.0 cm^3 of Solid: untapped; for Tapped density: after tapping 50 times; for Bulk density: calculated from weight of 5.0 cm^3 of solid; for Volume after tapped 50 times: starting volume 5.0 cm^3, tapped 50 times. As to the method: A comparative study of the bulk density and the tapped density of the 3 solid forms of compound one were carried out. The 3 materials tested were (1) compound I hydrate, (2) the polymorphic form of compound I of the invention and (3) the polymorphic form of compound I isolated from methanol. The tests indicated the weight of material in 5.0 cm^3 of solid (g) to calculate the bulk density. This was then tapped 50 times and the tapped density calculated.

Data set [3] can be described thus: Dynamic vapour sorption (DVS) at 25° C. The conditions noted are these: 0% to 95% RH; for total moisture uptake (percent change in mass based on dry mass): first cycle. As for the experimental part:
A comparative study of the dynamic vapour sorption (DVS) of the 3 solid forms of compound one were carried out. The 3 materials tested were (1) compound I hydrate, (2) the polymorphic form of compound I of the invention and (3) the polymorphic form of compound I isolated from methanol. The samples were analysed on a DVS automated moisture sorption instrument at 25° C. with sample sizes of 25-52 mg for the analysis. The samples were initially dried for 300 minutes under a continuous flow of air to establish the dry mass. The samples were then exposed to the following typical partial pressure profile: 0% to 90% RH in 10% steps and then followed by a 5% step to 95%. The partial pressure was then decreased in a similar manner.
Typical net percent change in mass (based on dry mass) versus time plots for the first cycle at 25° C. for the three samples are shown in FIGS. 7, 9 and 11. […] The line plotted on the left y-axis, indicates the percentage change in mass referenced to the dry mass (after initial drying stage), m0, as a function of time. The other line, plotted on the right y-axis, traces the requested % partial pressure of water vapour in the DVS as a function of time.
The isotherm plots display the percent change in mass (referenced from the dry mass, m0) versus the requested relative humidity.
For all the RH steps, the instrument was run in a dm/dt mode (mass variation over time variation). A fixed dm/dt value of 0.002% min-1 was selected. This criterion permits the DVS software to automatically determine when equilibrium has been reached and complete a relative humidity step. When the rate of change of mass falls below this threshold over a determined period of time, the humidity will proceed to the next programmed level. A maximum stage time of 360 minutes and a minimum stage time of 10 minutes were selected for this experiment.

Where [4] appears, read: listed as polymorphic form of the invention.

Regarding `CC1O[C@@H](OC2C(O)[C@H](O)C(CO)O[C@H]2O[C@H]2CC[C@@]3(C)C(=CC[C@H]4[C@@H]5C[C@@H]6O[C@]7(CC[C@@H](C)CO7)[C@@H](C)[C@@H]6[C@@]5(C)CC[C@@H]43)C2)C(O)C(O)[C@H]1O` (stereo partly drawn) [Form 1, diosgenyl α-L-rhamnopyranosyl-(1->2)-β-D-glucopyranoside], the “dissolution rate / dissolution profile (in words)” value in data set [1] (listed as hydrate) is “fastest”. Moreover, in data set [2] (listed as 1), the “Weight of 5.0 cm^3 of Solid” value is on record as 1.430 g, the Tapped density is 0.37 g/mL, the Bulk density was 0.29 g/mL and the “Volume after tapped 50 times” value was found to be 3.9 cm^3. Moreover, the “total moisture uptake (percent change in mass based on dry mass)” value in data set [3] (listed as anhydrate) was “about 5.2%”. The “percentage of water uptake (in words)” value in data set [3] (listed as hydrate) was “relatively high”.
Regarding `CC1O[C@@H](OC2C(O)[C@H](O)C(CO)O[C@H]2O[C@H]2CC[C@@]3(C)C(=CC[C@H]4[C@@H]5C[C@@H]6O[C@]7(CC[C@@H](C)CO7)[C@@H](C)[C@@H]6[C@@]5(C)CC[C@@H]43)C2)C(O)C(O)[C@H]1O` (stereo partly drawn) [Form 2, diosgenyl α-L-rhamnopyranosyl-(1->2)-β-D-glucopyranoside], the “time to reach full dissolution, relative to the other forms” value in data set [1] is listed as roughly 8 times as long. In data set [1] (setting [4]), the “dissolution rate / dissolution profile (in words)” value is on record as “much slower”. In data set [2] (listed as 2), the “Weight of 5.0 cm^3 of Solid” value was found to be 1.489 g, the Tapped density was 0.41 g/mL, the Bulk density is 0.30 g/mL and the “Volume after tapped 50 times” value was 3.6 cm^3. In data set [3] (setting [4]), the “total moisture uptake (percent change in mass based on dry mass)” value was “about 0.55%” and the “percentage of water uptake (in words)” value is reported as “low”.
For `CC1O[C@@H](OC2C(O)[C@H](O)C(CO)O[C@H]2O[C@H]2CC[C@@]3(C)C(=CC[C@H]4[C@@H]5C[C@@H]6O[C@]7(CC[C@@H](C)CO7)[C@@H](C)[C@@H]6[C@@]5(C)CC[C@@H]43)C2)C(O)C(O)[C@H]1O` (stereo partly drawn) [Form 3, diosgenyl α-L-rhamnopyranosyl-(1->2)-β-D-glucopyranoside], in data set [1] (listed as polymorphic form isolated from methanol), the “dissolution rate / dissolution profile (in words)” value is recorded as “very rapid”. For the same compound, in data set [2] (listed as 3), the “Weight of 5.0 cm^3 of Solid” value was determined as 0.847 g, the Tapped density came to 0.26 g/mL, the Bulk density was 0.17 g/mL and the “Volume after tapped 50 times” value is recorded as 3.2 cm^3. Moreover, the “total moisture uptake (percent change in mass based on dry mass)” value in data set [3] (listed as polymorph from methanol) was “about 2.5%”. The “percentage of water uptake (in words)” value in data set [3] (listed as polymorph obtained from methanol) is listed as “relatively high”.
